Measured values from BindingDB's records for doi:10.1016/j.bioorg.2015.11.002 (Government College University, 2016).

Experiments:
[1] = target: Acetylcholinesterase (Homo sapiens, UniProt P22303); test: Acetylcholinesterase Assay; conditions: pH 7.7
Description: The AChE inhibition activity was determined according to the Ellman's method with slight modifications. Total volume of the reaction mixture was 100 µL. It contained 60 µL Na2HPO4 buffer with concentration of 50 mM and pH 7.7. Ten µL test compound (0.5 mM well-1) was added, followed by the addition of 10 µL (0.005 unit well-1) enzyme. The contents were mixed and preread at 405 nm. Then contents were pre-incubated for 10 min at 37 °C. The reaction was initiated by the addition of 10 µL of 0.5 mM well-1 substrate (acetylthiocholine iodide), followed by the addition of 10 µL DTNB (0.5 mM well-1). After 30 min of incubation at 37 °C, absorbance was measured at 405 nm. Synergy HT (BioTek, USA) 96-well plate reader was used in all experiments. All experiments were carried out with their respective controls in triplicate.

[2] = target: Cholinesterase (Homo sapiens, UniProt P06276); test: Butyrylcholinesterase Assay; conditions: pH 7.7
Chain of Cholinesterase (P06276 whole entry): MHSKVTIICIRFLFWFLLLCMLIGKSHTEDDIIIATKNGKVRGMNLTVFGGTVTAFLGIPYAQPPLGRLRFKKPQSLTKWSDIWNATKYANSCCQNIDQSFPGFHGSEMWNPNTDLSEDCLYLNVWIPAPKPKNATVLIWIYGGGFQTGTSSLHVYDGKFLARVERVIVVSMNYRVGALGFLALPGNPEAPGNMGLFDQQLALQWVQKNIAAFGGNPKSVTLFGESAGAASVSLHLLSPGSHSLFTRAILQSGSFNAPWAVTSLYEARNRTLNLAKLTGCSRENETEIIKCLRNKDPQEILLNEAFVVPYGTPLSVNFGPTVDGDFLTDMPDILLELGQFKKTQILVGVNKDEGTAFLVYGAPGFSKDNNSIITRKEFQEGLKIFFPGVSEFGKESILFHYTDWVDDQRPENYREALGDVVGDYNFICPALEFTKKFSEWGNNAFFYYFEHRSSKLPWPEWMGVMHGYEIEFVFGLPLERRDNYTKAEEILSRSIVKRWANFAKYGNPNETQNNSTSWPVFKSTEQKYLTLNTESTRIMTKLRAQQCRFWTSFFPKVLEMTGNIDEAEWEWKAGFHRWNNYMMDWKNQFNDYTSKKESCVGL
Description: The butyrylcholinesterase (BChE) inhibition activity was determined according to the Ellman's method with minor modifications. Total volume of the reaction mixture was 100 µL containing 60 µL, Na2HPO4 buffer, 50 mM and pH 7.7. Ten µL test compound 0.5 mM well-1, followed by the addition of 10 µL (0.5 unit well-1)BChE. […] The reaction was initiated by the addition of 10 µL of 0.5 mM well-1 substrate (butyrylthiocholine bromide) followed by the addition of 10 µL DTNB, 0.5 mM well-1. […] Synergy HT (BioTek, USA) 96-well plate reader was used in all experiments. All experiments were carried out with their respective controls in triplicate.

Chain of Acetylcholinesterase (P22303 whole entry): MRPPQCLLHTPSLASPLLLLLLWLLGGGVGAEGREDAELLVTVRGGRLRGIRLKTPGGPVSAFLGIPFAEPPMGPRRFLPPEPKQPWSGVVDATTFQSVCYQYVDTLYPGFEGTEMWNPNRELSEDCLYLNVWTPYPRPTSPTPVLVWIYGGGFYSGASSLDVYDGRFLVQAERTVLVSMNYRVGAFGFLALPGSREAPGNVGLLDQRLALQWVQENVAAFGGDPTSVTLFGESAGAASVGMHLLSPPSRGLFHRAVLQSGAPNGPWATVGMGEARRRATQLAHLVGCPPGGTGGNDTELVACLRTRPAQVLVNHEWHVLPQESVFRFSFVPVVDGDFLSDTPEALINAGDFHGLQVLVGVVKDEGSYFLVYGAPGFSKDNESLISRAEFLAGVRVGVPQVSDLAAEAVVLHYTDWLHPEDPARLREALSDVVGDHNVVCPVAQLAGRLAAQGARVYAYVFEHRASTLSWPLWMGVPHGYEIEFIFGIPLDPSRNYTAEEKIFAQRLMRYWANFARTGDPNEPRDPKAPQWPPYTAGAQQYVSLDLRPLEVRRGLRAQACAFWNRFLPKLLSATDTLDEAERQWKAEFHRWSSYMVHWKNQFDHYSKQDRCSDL

**Q.** `CC(=O)N(c1ccc(-c2ccc(N(C(C)=O)S(=O)(=O)c3ccccc3)c(C)c2)cc1C)S(=O)(=O)c1ccccc1` [N,N'-(3,3'-dimethylbiphenyl-4,4'-diyl)bis(N-(phenylsulfonyl)acetamide) (3i)] was tested. Which IC50 [1] did it give?
**A.** 96.3 µM

**Q.** How did the IC50 [2] turn out when `Cc1cc(-c2ccc(N(Cc3ccccc3)S(=O)(=O)c3ccccc3)c(C)c2)ccc1N(Cc1ccccc1)S(=O)(=O)c1ccccc1` [N,N'-(3,3'-dimethylbiphenyl-4,4'-diyl)bis(N-benzylbenzenesulfonamide) (3p)] was run?
**A.** 31.3 µM

**Q.** And the IC50 [1]?
**A.** 2.27 µM

**Q.** Which results are given for `CCCCN(c1ccc(-c2ccc(N(CCCC)S(=O)(=O)c3ccccc3)c(C)c2)cc1C)S(=O)(=O)c1ccccc1` [N,N'-(3,3'-dimethylbiphenyl-4,4'-diyl)bis(N-butylbenzenesulfonamide) (3k)]?
**A.** IC50 [2]: 20.3 µM; IC50 [1]: 3.72 µM

**Q.** With `CCCCCCCN(c1ccc(-c2ccc(N(CCCCCCC)S(=O)(=O)c3ccccc3)c(C)c2)cc1C)S(=O)(=O)c1ccccc1` [N,N'-(3,3'-dimethylbiphenyl-4,4'-diyl)bis(N-heptylbenzenesulfonamide) (3n)] as the compound, how does the IC50 [2] read?
**A.** 48.7 µM

**Q.** And the IC50 [1]?
**A.** 43.2 µM

**Q.** `CCCCCCCCCCCCCCCCN(c1ccc(-c2ccc(N(CCCCCCCCCCCCCCCC)S(=O)(=O)c3ccccc3)c(C)c2)cc1C)S(=O)(=O)c1ccccc1` [N,N'-(3,3'-dimethylbiphenyl-4,4'-diyl)bis(N-hexadecylbenzenesulfonamide) (3o)] was tested. Which IC50 [2] did it give?
**A.** 24.7 µM

**Q.** What about the IC50 [1] of the same compound?
**A.** 2.45 µM

**Q.** How did the IC50 [1] turn out when `CCCCCCN(c1ccc(-c2ccc(N(CCCCCC)S(=O)(=O)c3ccccc3)c(C)c2)cc1C)S(=O)(=O)c1ccccc1` [N,N'-(3,3'-dimethylbiphenyl-4,4'-diyl)bis(N-hexylbenzenesulfonamide) (3m)] was run?
**A.** 49.6 µM

**Q.** With `Cc1cc(-c2ccc(N(C(C)C)S(=O)(=O)c3ccccc3)c(C)c2)ccc1N(C(C)C)S(=O)(=O)c1ccccc1` [N,N'-(3,3'-dimethylbiphenyl-4,4'-diyl)bis(N-isopropylbenzenesulfonamide) (3j)] as the compound, how does the IC50 [1] read?
**A.** 101 µM

**Q.** Which IC50 [1] does the source give for `CCCCCN(c1ccc(-c2ccc(N(CCCCC)S(=O)(=O)c3ccccc3)c(C)c2)cc1C)S(=O)(=O)c1ccccc1` [N,N'-(3,3'-dimethylbiphenyl-4,4'-diyl)bis(N-pentylbenzenesulfonamide) (3l)] here?
**A.** 51.2 µM

**Q.** `Cc1cc(-c2ccc(NS(=O)(=O)c3ccccc3)c(C)c2)ccc1NS(=O)(=O)c1ccccc1` [N,N'-(3,3'-dimethylbiphenyl-4,4'-diyl)dibenzenesulfonamide (2b)] was tested. Which IC50 [1] did it give?
**A.** 123 µM

**Q.** Which IC50 [2] does the source give for `CC(=O)N(c1ccc(-c2ccc(N(C(C)=O)S(=O)(=O)c3ccccc3)cc2)cc1)S(=O)(=O)c1ccccc1` [N,N'-(biphenyl-4,4'-diyl)bis(N-(phenylsulfonyl)acetamide) (3a)] here?
**A.** 156 µM

**Q.** And the IC50 [1]?
**A.** 103 µM

**Q.** Which results are given for `O=S(=O)(c1ccccc1)N(Cc1ccccc1)c1ccc(-c2ccc(N(Cc3ccccc3)S(=O)(=O)c3ccccc3)cc2)cc1` [N,N'-(biphenyl-4,4'-diyl)bis(N-benzylbenzenesulfonamide) (3h)]?
**A.** IC50 [2]: 35.8 µM; IC50 [1]: 61.6 µM

**Q.** For `CCCCN(c1ccc(-c2ccc(N(CCCC)S(=O)(=O)c3ccccc3)cc2)cc1)S(=O)(=O)c1ccccc1` [N,N'-(biphenyl-4,4'-diyl)bis(N-butylbenzenesulfonamide) (3c)], which IC50 [2] is on record?
**A.** 125 µM

**Q.** What about the IC50 [1] of the same compound?
**A.** 8.41 µM

**Q.** `CCCCCCCN(c1ccc(-c2ccc(N(CCCCCCC)S(=O)(=O)c3ccccc3)cc2)cc1)S(=O)(=O)c1ccccc1` [N,N'-(biphenyl-4,4'-diyl)bis(N-heptylbenzenesulfonamide) (3f)] was tested. Which IC50 [1] did it give?
**A.** 58.6 µM

**Q.** How did the IC50 [1] turn out when `CCCCCCN(c1ccc(-c2ccc(N(CCCCCC)S(=O)(=O)c3ccccc3)cc2)cc1)S(=O)(=O)c1ccccc1` [N,N'-(biphenyl-4,4'-diyl)bis(N-hexylbenzenesulfonamide) (3e)] was run?
**A.** 78.6 µM

**Q.** `CC(C)N(c1ccc(-c2ccc(N(C(C)C)S(=O)(=O)c3ccccc3)cc2)cc1)S(=O)(=O)c1ccccc1` [N,N'-(biphenyl-4,4'-diyl)bis(N-isopropylbenzenesulfonamide) (3b)] was tested. Which IC50 [1] did it give?
**A.** 73.2 µM

**Q.** For `CCCCCN(c1ccc(-c2ccc(N(CCCCC)S(=O)(=O)c3ccccc3)cc2)cc1)S(=O)(=O)c1ccccc1` [N,N'-(biphenyl-4,4'-diyl)bis(N-pentylbenzenesulfonamide) (3d)], which IC50 [1] is on record?
**A.** 79.6 µM

**Q.** For `O=S(=O)(Nc1ccc(-c2ccc(NS(=O)(=O)c3ccccc3)cc2)cc1)c1ccccc1` [N,N'-(biphenyl-4,4'-diyl)dibenzenesulfonamide (2a)], which IC50 [2] is on record?
**A.** 203 µM

**Q.** What about the IC50 [1] of the same compound?
**A.** 42.3 µM

**Q.** How did the IC50 [2] turn out when `CCCCCCCCCCCCCCCCN(c1ccc(-c2ccc(N(CCCCCCCCCCCCCCCC)S(=O)(=O)c3ccccc3)cc2)cc1)S(=O)(=O)c1ccccc1` [N,N’-(biphenyl-4,4’-diyl)bis(N-hexadecylbenzenesulfonamide) (3g)] was run?
**A.** 7.74 µM

**Q.** And the IC50 [1]?
**A.** 4.63 µM
